Source: patent US6458782B1, “Remedies for diabetes” (priority 1997, dated 2002)

Tests used:
adipocyte strain 3T3L-1 [1] = test: Differentiation of precursor adipocytes into adipocytes (Oil Red O staining, absorbance of extract); assay type: cell-based; details: culture for 13 days; for Absorbance (490 nm): Oil Red O extracted with isopropanol, Control 0.266
Procedure: (§1) Therefore, effect of the medicaments of the present invention on enhancement of differentiation of precursor adipocytes into adipocytes was examined by using an adipocyte strain 3T3L-1 (obtained from Japanese Cancer Research Resource Bank) according to the published method (Endocrinology, 137, 4706, 1996). The cells were cultured in a culture dish having a diameter of 6 cm as a monolayer, and added with HX600, HX-620, HX-630, or HX-640 when the cells reached a density at which the cells began to contact with one another. After the culture for 13 days, lipid droplets in the cells were stained with Oil Red O. The dye was extracted with 1.0 ml of isopropanol (a modified method described in Methods in Enzymology, 32, 192), and absorbance (490 nm) of the extract was measured and used as index of differentiation into adipocytes.

adipocyte strain 3T3L1 = test: Enhancement of the differentiation of precursor adipocytes into adipocytes induced by a thiazoline compound (troglitazone); assay type: cell-based; details: for Absorbance (490 nm): single compound 10^−7 M, culture 10 days, Control 0.086
Source text: The culture was continued for 10 days.

adipocyte strain 3T3L-1 [2] = test: Enhancement of the differentiation of precursor adipocytes into adipocytes induced by insulin; assay type: cell-based; details: for Absorbance (490 nm): culture 9 days, Not added 0.072
Procedure: as §1
Synergistic effect of insulin used for therapeutic treatment of diabetes and the medicament of the present invention was examined. Cells of the adipocyte strain 3T3L-1 were cultured in a culture dish having a diameter of 3.5 cm as a monolayer, and added with 10 μg/ml of insulin and HX-600 (10^−6 M or 10^−8 M) when the cells reached a density at which the cells began to contact with one another. The culture was continued for 9 days.

[3] = tested on: diabetic mice (C57BL/6J-Lepob); test: Hypoglycemic action in diabetes model mice (blood glucose and acylglycerol level); assay type: in vivo; details: for Blood acylglyerol level, percentage based on the control group / Blood glucose level, percentage based on the control group / Blood acylglyerol level / Blood glucose level: 6th day; for Blood acylglyerol level: Control 132 ± 14; for Blood glucose level: Control 428 ± 82
Procedure: Experiments were performed by using diabetic mice hereditarily have pathological conditions of fatness, hyperglycemia, and hyperlipidemia (C57BL/6J-Lepob, female, Jackson Laboratory, 10-week old) according to the method described in the literature (Diabetologia, 14, 141, 1978). Blood samples were collected one day before the start of the administration, and the mice were divided into three groups (one group consisted of 4 or 5 mice). One group was used as a medication group, and each mouse of the group was orally administered with HX-600 suspended in 0.1% carboxymethylcellulose as microparticules (30 mg/kg/day or 100 mg/kg/day) every day for 6 days. Mice of the control group were orally administered with only 0.1% carboxymethylcellulose. On the 6th day after the start of the administration, blood samples were collected from ophthalmic fundus veins.
Blood glucose level was measured by the glucose oxidase method (Fuji Drychem Slide GLU-P), and acylglycerol level was measured by the glycerol phosphate dehydrogenase method (Fuji Drychem Slide TG-P). As a measurement apparatus, Fuji Drychem 5000 was used. […] Percentages based on the control group are also indicated.

[4] = 30 mg/kg/day and 100 mg/kg/day, 6th day of the administration

Row | Molecule | Absorbance (490 nm) (adipocyte strain 3T3L-1 [1]; 10^−6 M) | Absorbance (490 nm) (adipocyte strain 3T3L-1 [1]; 10^−7 M) | Absorbance (490 nm) (adipocyte strain 3T3L-1 [1]; 10^−8 M) | differentiation of precursor adipocyte 3T3L-1 into adipocytes (in words) (adipocyte strain 3T3L-1 [1]) | Absorbance (490 nm) (adipocyte strain 3T3L1) | also measured
1 | 4-[2,3-(2,5-dimethyl-2,5-hexano)dibenzo[b,e]azepin-11-yl]benzoic acid [HX-640] | 0.825 | 0.694 | 0.365 | strongly promoted | – | –
2 | Cc1c(C)c2c(c(C)c1O)CCC(C)(COc1ccc(CC3SC(=O)NC3=O)cc1)O2 (stereo not drawn) [CS-045, troglitazone, reference compound] | – | – | – | – | 0.171 | –
3 | CN1c2ccccc2N=C(c2ccc(C(=O)O)cc2)c2cc3c(cc21)C(C)(C)CCC3(C)C [HX-600, 4-[5H-2,3-(2,5-dimethyl-2,5-hexano)-5-methyldibenzo [b,e][1,4]diazepin-11-yl]benzoic acid] | 0.690 | 0.445 | 0.274 | strongly promoted | 0.131 | action of inducing differentiation into adipocytes by CS-045 (in words) (adipocyte strain 3T3L1; HX600 10^−7 M with CS-045 10^−7 M, 10 days): synergistically promoted; Absorbance (490 nm) (adipocyte strain 3T3L-1 [2]; HX-600 10^−6 M alone): 0.287; differentiation into adipocytes induced by the action of insulin (in words) (adipocyte strain 3T3L-1 [2]; HX-600 10^−6 M and 10^−8 M with insulin 10 μg/ml, 9 days): synergistically promoted; Absorbance (490 nm) (adipocyte strain 3T3L-1 [2]; HX-600 10^−8 M alone): 0.118; acylglycerol level versus the control group (in words) [3, 4]: remarkably lower; blood glucose level versus the control group (in words) [3, 4]: remarkably lower; Blood acylglyerol level, percentage based on the control group ([3]; 30 mg/kg/day oral for 6 days): 79.5%; Blood glucose level, percentage based on the control group ([3]; 30 mg/kg/day oral for 6 days): 60.3%; Blood acylglyerol level ([3]; 30 mg/kg/day oral for 6 days): 105 ± 14 mg/dL; Blood glucose level ([3]; 30 mg/kg/day oral for 6 days): 258 ± 56 mg/dL; Blood acylglyerol level, percentage based on the control group ([3]; 100 mg/kg/day oral for 6 days): 72.7%; Blood glucose level, percentage based on the control group ([3]; 100 mg/kg/day oral for 6 days): 55.6%; Blood acylglyerol level ([3]; 100 mg/kg/day oral for 6 days): 96 ± 11 mg/dL; Blood glucose level ([3]; 100 mg/kg/day oral for 6 days): 238 ± 59 mg/dL
4 | CC1(C)CCC(C)(C)c2cc3c(cc21)Oc1ccccc1N=C3c1ccc(C(=O)O)cc1 [HX-620, 4-[2,3-(2,5-dimethyl-2,5-hexano)dibenzo[b,f][1,4]oxazepin-11-yl]benzoic acid] | 0.543 | 0.308 | 0.225 | strongly promoted | – | –
5 | CC1(C)CCC(C)(C)c2cc3c(cc21)Sc1ccccc1N=C3c1ccc(C(=O)O)cc1 [HX-630, 4-[2,3-(2,5-dimethyl-2,5-hexano)dibenzo[b,f][1,4]thiazepin-11-yl]benzoic acid] | 0.745 | 0.471 | 0.298 | strongly promoted | – | –
6 | insulin | – | – | – | – | – | Absorbance (490 nm) (adipocyte strain 3T3L-1 [2]; insulin 10 μg/ml alone): 0.301
